Our source for the Ki and inhibition values is patent publication US8962631B2 (Vertex Pharmaceuticals Incorporated, priority 2010, dated 2015).

The inhibition is the relative decrease from the control value, in per cent.

T1 sequence (Q13535 whole entry): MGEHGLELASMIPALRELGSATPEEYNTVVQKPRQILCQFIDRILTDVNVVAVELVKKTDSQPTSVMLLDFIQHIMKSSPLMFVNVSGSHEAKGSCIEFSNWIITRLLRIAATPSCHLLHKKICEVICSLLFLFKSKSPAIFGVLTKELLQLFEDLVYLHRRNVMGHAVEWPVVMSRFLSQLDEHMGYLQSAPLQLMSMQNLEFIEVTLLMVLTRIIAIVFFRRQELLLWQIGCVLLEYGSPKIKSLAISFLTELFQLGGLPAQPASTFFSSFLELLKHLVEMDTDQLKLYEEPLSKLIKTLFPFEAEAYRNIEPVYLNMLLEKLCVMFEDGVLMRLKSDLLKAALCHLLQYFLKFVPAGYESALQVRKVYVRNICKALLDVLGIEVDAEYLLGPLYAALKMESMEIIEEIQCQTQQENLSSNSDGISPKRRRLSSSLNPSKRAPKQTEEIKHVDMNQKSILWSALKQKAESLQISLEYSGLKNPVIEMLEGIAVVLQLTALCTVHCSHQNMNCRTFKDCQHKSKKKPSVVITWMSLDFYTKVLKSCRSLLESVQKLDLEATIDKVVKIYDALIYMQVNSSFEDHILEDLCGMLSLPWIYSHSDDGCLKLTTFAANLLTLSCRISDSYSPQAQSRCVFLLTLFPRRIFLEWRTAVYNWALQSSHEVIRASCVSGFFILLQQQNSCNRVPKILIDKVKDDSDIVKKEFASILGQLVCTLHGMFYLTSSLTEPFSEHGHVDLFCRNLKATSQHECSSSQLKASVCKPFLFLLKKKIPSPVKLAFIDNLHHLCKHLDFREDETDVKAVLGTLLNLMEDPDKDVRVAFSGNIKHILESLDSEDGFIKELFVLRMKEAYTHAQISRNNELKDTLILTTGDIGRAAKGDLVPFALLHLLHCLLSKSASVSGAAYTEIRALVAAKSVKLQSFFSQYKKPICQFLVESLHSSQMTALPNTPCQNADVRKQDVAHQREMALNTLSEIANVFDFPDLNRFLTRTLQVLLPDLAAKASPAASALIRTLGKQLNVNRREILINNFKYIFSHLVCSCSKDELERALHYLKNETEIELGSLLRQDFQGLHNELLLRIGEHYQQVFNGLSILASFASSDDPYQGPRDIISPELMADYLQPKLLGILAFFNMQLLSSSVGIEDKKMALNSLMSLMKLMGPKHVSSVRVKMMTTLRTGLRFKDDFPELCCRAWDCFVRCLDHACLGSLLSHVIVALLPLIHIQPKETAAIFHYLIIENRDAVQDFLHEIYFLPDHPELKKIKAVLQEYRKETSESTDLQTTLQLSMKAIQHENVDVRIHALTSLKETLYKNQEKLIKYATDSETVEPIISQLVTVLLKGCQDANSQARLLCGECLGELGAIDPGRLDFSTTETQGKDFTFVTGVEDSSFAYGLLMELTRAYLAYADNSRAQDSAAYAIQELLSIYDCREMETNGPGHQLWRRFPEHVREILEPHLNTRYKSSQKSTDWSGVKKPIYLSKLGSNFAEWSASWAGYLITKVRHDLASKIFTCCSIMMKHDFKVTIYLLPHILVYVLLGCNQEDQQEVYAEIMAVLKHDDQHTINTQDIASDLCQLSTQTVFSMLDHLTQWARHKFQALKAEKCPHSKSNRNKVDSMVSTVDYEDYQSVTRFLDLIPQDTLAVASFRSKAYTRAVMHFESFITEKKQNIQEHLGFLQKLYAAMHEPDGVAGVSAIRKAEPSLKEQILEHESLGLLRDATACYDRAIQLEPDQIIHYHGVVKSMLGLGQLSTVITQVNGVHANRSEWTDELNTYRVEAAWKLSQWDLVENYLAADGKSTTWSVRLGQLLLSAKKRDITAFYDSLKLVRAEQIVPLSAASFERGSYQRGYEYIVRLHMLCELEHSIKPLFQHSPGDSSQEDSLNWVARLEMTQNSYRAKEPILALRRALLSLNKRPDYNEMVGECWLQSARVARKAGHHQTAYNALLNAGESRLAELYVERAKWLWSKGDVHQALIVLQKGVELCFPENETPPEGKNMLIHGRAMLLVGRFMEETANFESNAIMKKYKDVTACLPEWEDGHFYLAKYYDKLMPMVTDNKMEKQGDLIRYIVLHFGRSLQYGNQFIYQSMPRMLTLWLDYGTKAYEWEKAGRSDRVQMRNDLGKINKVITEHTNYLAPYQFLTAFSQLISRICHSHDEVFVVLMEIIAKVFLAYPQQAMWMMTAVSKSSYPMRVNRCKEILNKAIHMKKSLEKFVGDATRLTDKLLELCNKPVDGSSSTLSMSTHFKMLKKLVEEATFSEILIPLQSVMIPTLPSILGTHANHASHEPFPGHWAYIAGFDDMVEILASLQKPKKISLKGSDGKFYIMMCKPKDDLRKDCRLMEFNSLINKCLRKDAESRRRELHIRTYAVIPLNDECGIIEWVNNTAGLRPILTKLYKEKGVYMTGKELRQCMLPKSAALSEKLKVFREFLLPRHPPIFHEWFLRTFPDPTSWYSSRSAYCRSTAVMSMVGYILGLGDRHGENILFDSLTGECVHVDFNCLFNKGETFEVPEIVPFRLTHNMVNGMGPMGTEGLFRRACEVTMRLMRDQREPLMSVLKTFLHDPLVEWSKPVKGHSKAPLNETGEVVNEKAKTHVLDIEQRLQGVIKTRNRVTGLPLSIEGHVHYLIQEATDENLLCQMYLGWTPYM

One assay addresses T1, full-length ATR (Homo sapiens, UniProt Q13535).
T1 construct: Assays were carried out at 25° C. in the presence of 5 nM full-length ATR
Kind of assay: ATR Inhibition Assay (radioactive-phosphate incorporation). The format is biochemical. The settings on record: Ki(app); 10 μM ATP, 800 μM target peptide, 5 nM full-length ATR, 25° C. The method, then: Compounds were screened for their ability to inhibit ATR kinase using a radioactive-phosphate incorporation assay. Assays were carried out in a mixture of 50 mM Tris/HCl (pH 7.5), 10 mM MgCl2 and 1 mM DTT. Final substrate concentrations were 10 μM [γ-33P]ATP (3 mCi 33P ATP/mmol ATP, Perkin Elmer) and 800 μM target peptide ([…] (SEQ. ID NO: 1)).
Assays were carried out at 25° C. in the presence of 5 nM full-length ATR. An assay stock buffer solution was prepared containing all of the reagents listed above, with the exception of ATP and the test compound of interest. 13.5 μL of the stock solution was placed in a 96 well plate followed by addition of 2 μL of DMSO stock containing serial dilutions of the test compound (typically starting from a final concentration of 15 μM with 3-fold serial dilutions) in duplicate (final DMSO concentration 7%). The plate was pre-incubated for 10 minutes at 25° C. and the reaction initiated by addition of 15 μL [γ-33P]ATP (final concentration 10 μM).
The reaction was stopped after 24 hours by the addition of 30 μL 0.1M phosphoric acid containing 2 mM ATP. A multiscreen phosphocellulose filter 96-well plate (Millipore, Cat no. MAPHN0B50) was pretreated with 100 μL 0.2M phosphoric acid prior to the addition of 45 μL of the stopped assay mixture. The plate was washed with […] 0.2M phosphoric acid. After drying, 100 μL Optiphase ‘SuperMix’ liquid scintillation cocktail (Perkin Elmer) was added to the well prior to scintillation counting (1450 Microbeta Liquid Scintillation Counter, Wallac).
After removing mean background values for all of the data points, Ki(app) data were calculated from non-linear regression analysis of the initial rate data using the Prism software package (GraphPad Prism version 3.0cx for Macintosh, GraphPad Software, San Diego Calif., USA).
Turning to `Cc1ccc2nc(-c3nc(C#CCN(C)C)cnc3N)[nH]c2c1` [II-84, 5-[3-(Dimethylamino)prop-1-ynyl]-3-(6-methyl-1H-benzimidazol-2-yl)pyrazin-2-amine], the Ki lay in the range of 1000 to 8000 nM.
Regarding `CCN(CC)C(=O)c1cnc(N)c(-c2nc3ccc(C)cc3[nH]2)n1` [II-46, 5-Amino-N,N-diethyl-6-(6-methyl-1H-benzimidazol-2-yl)pyrazine-2-carboxamide], the Ki fell in the range of 1000 to 8000 nM.
As for `CC(=O)NCC#Cc1cnc(N)c(-c2nc3ccc(C)cc3[nH]2)n1` [II-88, N-[3-[5-amino-6-(6-methyl-1H-benzimidazol-2-yl)pyrazin-2-yl]prop-2-ynyl]acetamide], the Ki is at most 500 nM.
Regarding `COc1ccccc1NC(=O)c1nc(Nc2ccccc2)cnc1N` [II-3, 3-Amino-6-anilino-N-(2-methoxyphenyl)pyrazine-2-carboxamide], the Ki was at most 500 nM.
`Cc1ccc2nc(-c3nc(C(=O)NCc4cccnc4)cnc3N)[nH]c2c1` [II-70, 5-Amino-6-(6-methyl-1H-benzimidazol-2-yl)-N-(3-pyridylmethyl)pyrazine-2-carboxamide]: the Ki lay in the range of 500 to 1000 nM.
Still for that read-out and setting: the value for `Nc1ncc(Nc2ccccc2)nc1C(=O)Nc1ccccc1` [II-1, 3-Amino-6-anilino-N-phenyl-pyrazine-2-carboxamide] was at most 500 nM.
The same measure, in the same setting: the value for `Nc1ncc(Oc2cccc(Cl)c2)nc1-c1nc2ccccc2[nH]1` [II-8, 3-(1H-Benzimidazol-2-yl)-5-(3-chlorophenoxy)pyrazin-2-amine] was 500 to 1000 nM.
As for `Cc1ccc2nc(-c3nc(C(=O)NCc4ccc(F)cc4)cnc3N)[nH]c2c1` [II-64, 5-Amino-N-[(4-fluorophenyl)methyl]-6-(6-methyl-1H-benzimidazol-2-yl)pyrazine-2-carboxamide], the Ki was at most 500 nM.
`Cc1ccc2nc(-c3nc(OC4CCCN(C)C4)cnc3N)[nH]c2c1` (centres unmarked) [II-33, 3-(6-Methyl-1H-benzimidazol-2-yl)-5-[(1-methyl-3-piperidyl)oxy]pyrazin-2-amine]: the Ki was in the range of 1000 to 8000 nM.
Turning to `Cc1ccc2nc(-c3nc(OC4CCOC4)cnc3N)[nH]c2c1` (centres unmarked) [II-32, 3-(6-Methyl-1H-benzimidazol-2-yl)-5-tetrahydrofuran-3-yloxy-pyrazin-2-amine], the Ki lay in the range of 500 to 1000 nM.
On to `Cc1ccc2nc(-c3nc(C(=O)NCC4CCCC4)cnc3N)[nH]c2c1` [II-49, 5-Amino-N-(cyclopentylmethyl)-6-(6-methyl-1H-benzimidazol-2-yl)pyrazine-2-carboxamide], for which the Ki is at most 500 nM.
Still for that read-out and setting: the value for `COCCNC(=O)c1cnc(N)c(-c2nc3ccc(C)cc3[nH]2)n1` [II-71, 5-Amino-N-(2-methoxyethyl)-6-(6-methyl-1H-benzimidazol-2-yl)pyrazine-2-carboxamide] was 1000 to 8000 nM; that for `COc1ccc(CNC(=O)c2cnc(N)c(-c3nc4ccc(C)cc4[nH]3)n2)cc1` [II-65, 5-Amino-N-[(4-methoxyphenyl)methyl]-6-(6-methyl-1H-benzimidazol-2-yl)pyrazine-2-carboxamide] was at most 500 nM; that for `Cc1ccc2nc(-c3nc(Oc4ccccc4)cnc3N)[nH]c2c1` [II-30, 3-(6-Methyl-1H-benzimidazol-2-yl)-5-phenoxy-pyrazin-2-amine] was 1000 to 8000 nM.
Still for that read-out and setting: the value for `Cc1ccc2nc(-c3nc(Oc4ccc(F)cc4)cnc3N)[nH]c2c1` [II-23, 5-(4-Fluorophenoxy)-3-(6-methyl-1H-benzimidazol-2-yl)pyrazin-2-amine] was 1000 to 8000 nM; that for `CC(=O)Nc1cccc(Oc2cnc(N)c(-c3nc4ccccc4[nH]3)n2)c1` [II-9, N-[3-[5-Amino-6-(1H-benzimidazol-2-yl)pyrazin-2-yl]oxyphenyl]acetamide] was 1000 to 8000 nM.
Same read-out and setting: the value for `Cc1ccc2nc(-c3nc(C#CCO)cnc3N)[nH]c2c1` [II-82, 3-[5-Amino-6-(6-methyl-1H-benzimidazol-2-yl)pyrazin-2-yl]prop-2-yn-1-ol] was 500 to 1000 nM; that for `COC(=O)CNC(=O)c1cnc(N)c(-c2nc3ccc(C)cc3[nH]2)n1` [II-55, Methyl 2-[[5-amino-6-(6-methyl-1H-benzimidazol-2-yl)pyrazine-2-carbonyl]amino]acetate] was at most 500 nM; that for `Cc1ccc2nc(-c3nc(C(=O)N(C)CC#N)cnc3N)[nH]c2c1` [II-76, 5-Amino-N-(cyanomethyl)-N-methyl-6-(6-methyl-1H-benzimidazol-2-yl)pyrazine-2-carboxamide] was 1000 to 8000 nM.
With `CC(=O)Nc1ccc(Oc2cnc(N)c(-c3nc4ccc(C)cc4[nH]3)n2)cc1` [II-18, N-[4-[5-Amino-6-(6-methyl-1H-benzimidazol-2-yl)pyrazin-2-yl]oxyphenyl]acetamide], the Ki lay in the range of 1000 to 8000 nM.
`Cc1ccc2nc(-c3nc(C(=O)N4CCC4)cnc3N)[nH]c2c1` [II-60, [5-Amino-6-(6-methyl-1H-benzimidazol-2-yl)pyrazin-2-yl]-(azetidin-1-yl)methanone]: the Ki was at most 500 nM.
For the molecule `Cc1ccc2nc(-c3nc(Oc4ccccc4C#N)cnc3N)[nH]c2c1` [II-20, 2-[5-Amino-6-(6-methyl-1H-benzimidazol-2-yl)pyrazin-2-yl]oxybenzonitrile], the Ki lay within 500 to 1000 nM.
As to `Cc1ccc2nc(-c3nc(NC(=O)CC#N)cnc3N)[nH]c2c1` [II-92, N-(5-Amino-6-(6-methyl-1H-benzo[d]imidazol-2-yl)pyrazin-2-yl)-2-cyanoethanamide], the Ki lay within 500 to 1000 nM.
Same read-out and setting: the value for `Nc1ncc(C#CCCO)nc1-c1nnc(-c2ccccc2)o1` [II-89, 4-[5-amino-6-(5-phenyl-1,3,4-oxadiazol-2-yl)pyrazin-2-yl]but-3-yn-1-ol] was 1000 to 8000 nM; that for `N#Cc1cccc(Oc2cnc(N)c(-c3nc4ccccc4[nH]3)n2)c1` [II-10, 3-[5-Amino-6-(1H-benzimidazol-2-yl)pyrazin-2-yl]oxybenzonitrile] was at most 500 nM; that for `Cc1ccc2nc(-c3nc(C(=O)NCCc4ccccc4)cnc3N)[nH]c2c1` [II-69, 5-Amino-6-(6-methyl-1H-benzimidazol-2-yl)-N-phenethyl-pyrazine-2-carboxamide] was 500 to 1000 nM.
Turning to `Cc1ccc2nc(-c3nc(C(=O)N(C)Cc4ccccc4)cnc3N)[nH]c2c1` [II-58, 5-Amino-N-benzyl-N-methyl-6-(6-methyl-1H-benzimidazol-2-yl)pyrazine-2-carboxamide], the Ki is 500 to 1000 nM.

Staying with this assay, now noted: at 15 uM compound; read-out: percent inhibition against ATR.
In the case of `Cc1ccc2nc(-c3nc(C(=O)NCC4CCCCC4)cnc3N)[nH]c2c1` [II-63, 5-Amino-N-(cyclohexylmethyl)-6-(6-methyl-1H-benzimidazol-2-yl)pyrazine-2-carboxamide], the inhibition at 15 µM fell in the range of 25 to 45%.
The same measure, in the same setting: the value for `Nc1ncc(Sc2ccccc2)nc1-c1nc2ccccc2[nH]1` [II-38, 3-(1H-Benzimidazol-2-yl)-5-phenylsulfanyl-pyrazin-2-amine] was 15 to 24%.
On the same count and under the same terms, the value for `COC(=O)c1ccc(Oc2cnc(N)c(-c3nc4ccc(C)cc4[nH]3)n2)cc1` [II-25, Methyl 4-[5-amino-6-(6-methyl-1H-benzimidazol-2-yl)pyrazin-2-yl]oxybenzoate] was 10%.
On the same count and under the same terms, the value for `COc1ccc(Oc2cnc(N)c(-c3nc4ccc(C)cc4[nH]3)n2)cc1` [II-19, 5-(4-Methoxyphenoxy)-3-(6-methyl-1H-benzimidazol-2-yl)pyrazin-2-amine] was 25 to 45%.

The assay is the same for the next values; noted with them: at 30 uM compound; read-out: percent inhibition against ATR.
As to `Nc1ncc(Sc2cccc(F)c2)nc1-c1nc2ccccc2[nH]1` [II-40, 3-(1H-Benzimidazol-2-yl)-5-(3-fluorophenyl)sulfanyl-pyrazin-2-amine], the inhibition at 30 µM is 40 to 50%.
